Several values for one entry are separate records, joined by “and”; a condition that tells them apart may be missing. Equal values may be shown once.
conditions: [M+H-H2O]+; instrument: TW; calibrated with polyalanine and drug standards

Compound	collision cross section (N2) [Å²]
CNCC(O)c1ccc(O)cc1 (centres undefined) [OXEDRINE]	132
CC(C)=CCC/C(C)=C/CC/C(C)=C/CC/C(C)=C/CC/C(C)=C/CC/C(C)=C/CC/C(C)=C/CC/C(C)=C/CC/C(C)=C/CO [SOLANESOL]	256.8

same assay, conditions: [M+H]+; instrument: TW; calibrated with polyalanine and drug standards

Compound	collision cross section (N2)
CC1=C(/C=C/C(C)=C/C=C/C(C)=C/C(=O)Nc2ccc(O)cc2)C(C)(C)CCC1 [FENRETINIDE]	200.5 Å²
OCC(O)CN1CCN(c2ccccc2)CC1 (centres undefined) [DROPROPIZINE]	155.7 Å²
COc1ccccc1N1CCNCC1 [1-(2-METHOXYPHENYL)PIPERAZINE]	140.5 Å²
C[C@H]1[C@H](NC(=O)/C(=N\OC(C)(C)C(=O)O)c2csc(N)n2)C(=O)N1S(=O)(=O)O [AZTREONAM]	197.4 Å²
CC[C@@]1(O)C(=O)OCc2c1cc1n(c2=O)Cc2cc3ccccc3nc2-1 [CAMPTOTHECIN]	181.9 Å²
COC(=O)C[C@H]1C2(C)CC34OC5(C)O[C@@]6([C@H](OC(C)=O)C(OC(C)=O)[C@]7(C)C(/C(=C(/O)C(C)C)C(=O)O[C@H]7c7ccoc7)[C@@]6(O5)[C@H](OC(C)=O)[C@@]3(O)C2OC(=O)C(C)C)[C@]14C (some centres undefined) [BUSSEIN]	258.7 Å²
CCCCCC1C(=O)CCC1CC(=O)O (centres undefined) [DIHYDROJASMONIC ACID]	147 Å²
CCC(=O)c1c(O)cc(O)cc1O [FLOPROPIONE]	134.3 Å²
CO[C@H]1C[C@H](O[C@@H]2/C(C)=C/C[C@@H]3C[C@@H](C[C@]4(CC[C@H](C)[C@@H](C5CCCCC5)O4)O3)OC(=O)[C@@H]3C=C(C)/C(=N/O)[C@H]4OC/C(=C\C=C\[C@@H]2C)[C@]43O)O[C@@H](C)[C@@H]1O [SELAMECTIN]	293.2 Å²
CN1CC[C@@]2(C)c3cc(O)ccc3N(C)[C@@H]12 [ESEROLINE]	149.1 Å²
CCN(CC)CCNC(=O)c1cc(Br)c(N)cc1OC [BROMOPRIDE]	173.6 Å²
Nc1ccc([As](=O)(O)O)cc1 [ARSANILIC ACID]	133.2 Å²
O=C1C[C@@H]2OCC=C3CN4CC[C@]56c7ccccc7N1[C@H]5[C@H]2[C@H]3C[C@H]46 [STRYCHNINE]	172.2 Å²
C/C=C(/C)C(=O)O[C@H]1CC[C@@]2(C)[C@@H]3CC[C@H]4[C@]5(O)C[C@H](O)[C@@]6(O)[C@@H](CN7C[C@@H](C)CC[C@H]7[C@@]6(C)O)[C@]5(O)C[C@@]42O[C@]13O [CEVADINE]	237.2 Å²
CC(=O)OCC(=O)[C@@]1(O)CC[C@H]2[C@@H]3CCC4=CC(=O)CC[C@]4(C)[C@H]3[C@@H](O)C[C@@]21C [HYDROCORTISONE ACETATE]	196.1 Å²
C=CCc1cc(OC)c2c(c1OC)OCO2 [APIOLE]	146.1 Å²
CC(C)CCC[C@@H](C)[C@H]1CC[C@H]2[C@@H]3CC=C4CC(=O)CC[C@]4(C)[C@H]3CC[C@]12C [CHOLEST-5-EN-3-ONE]	211.4 Å²
CC1(C)C2CC(=O)[C@]3(C)C(CC[C@@]4(C)[C@H](c5ccoc5)OC(=O)[C@H]5O[C@]543)[C@@]2(C)C(=O)C[C@H]1O (some centres undefined) [1,7-DIDEACETOXY-1,7-DIOXO-3-DEACETYLKHIVORIN]	199.7 Å²
C#C[C@]1(O)CC[C@H]2[C@@H]3CCC4=CC(=O)CC[C@@H]4[C@H]3CC[C@@]21C [NORETHINDRONE]	174.4 Å²
COc1ccc(C(CN(C)C)C2(O)CCCCC2)cc1 (centres undefined) [VENLAFAXINE]	169.9 Å²
CC(=O)O[C@@H]1C[C@H]2C(C)(C)C(=O)C=C[C@]2(C)[C@H]2CC[C@]3(C)C(=CC(=O)O[C@H]3c3ccoc3)[C@@]21C [DEOXYGEDUNIN]	206.3 Å²
NCCc1ccc(O)c(O)c1 [3-HYDROXYTYRAMINE]	127.7 Å²
Nc1ccc(S(=O)(=O)c2ccc(N)cc2)cc1 [DAPSONE]	151.7 Å²
COP(=S)(OC)Oc1ccc(Sc2ccc(OP(=S)(OC)OC)cc2)cc1 [TEMEFOS]	203.3 Å² and 187.6 Å²
O=C1C(Cl)=C(Cl)C(=O)C(Cl)=C1Cl [CHLORANIL]	148.9 Å²

Second part, the compound after the results:

collision cross section (N2)	Compound
121.2 Å²	OCCc1ccccc1 [PHENYLETHYL ALCOHOL]
174.5 Å²	CNCCC(Oc1ccc(C(F)(F)F)cc1)c1ccccc1 (centres undefined) [FLUOXETINE]
165.4 Å²	COc1c(C)c2c(c(O)c1C/C=C(\C)CCC(=O)O)C(=O)OC2 [MYCOPHENOLIC ACID]
168.5 Å²	COc1ccc(-c2coc3c(O)c(O)c(OC)cc3c2=O)cc1 [DIPTERYXIN]
165.9 Å²	CC(=O)CC(c1ccccc1)c1c(O)c2ccccc2oc1=O (centres undefined) [WARFARIN]
145.9 Å²	O=C1c2ccccc2C(=O)C1c1ccccc1 [PHENINDIONE]
142.6 Å²	Cc1c(N)c(=O)n(-c2ccccc2)n1C [AMPYRONE]
176 Å²	CCc1oc2ccccc2c1C(=O)c1cc(Br)c(O)c(Br)c1 [BENZBROMARONE]
164 Å²	CCOc1ccc(C(=O)c2ccc(OC)c(O)c2O)cc1 [2,3-DIHYDROXY-4-METHOXY-4'-ETHOXYBENZOPHENONE]
156.5 Å²	O=C(O)CCCN1C(=O)c2cccc3cccc(c23)C1=O [4-NAPHTHALIMIDOBUTYRIC ACID]
188.5 Å²	CC1COc2c(N3CCN(C)CC3)c(F)cc3c(=O)c(C(=O)O)cn1c23 (centres undefined) [OFLOXACIN]
162.1 Å²	COc1ccc(-c2coc3cc(O)ccc3c2=O)c(O)c1O [KOPARIN]
153.5 Å²	O=C(/C=C/c1ccccc1)c1ccc(O)cc1O [2',4'-DIHYDROXYCHALCONE]
149.8 Å²	CC1CCc2cc(F)cc3c(=O)c(C(=O)O)cn1c23 (centres undefined) [FLUMEQUINE]
160.7 Å²	O=C(CCc1ccc(O)cc1)c1c(O)cc(O)cc1O [PHLORETIN]
161.5 Å²	CC(C)NCC(O)COc1cccc2ccccc12 (centres undefined) [PROPRANOLOL]
185.8 Å²	CCOC(=O)N1CCC(=C2c3ccc(Cl)cc3CCc3cccnc32)CC1 [LORATADINE]
147.3 Å²	O=c1cc(-c2ccccc2)oc2cccc(O)c12 [PRIMULETIN]
194.9 Å²	O=C(O)c1ccccc1C(=O)Nc1ccc(S(=O)(=O)Nc2nccs2)cc1 [PHTHALYLSULFATHIAZOLE]

same assay, conditions: [M+Na]+; instrument: TW; calibrated with polyalanine and drug standards

collision cross section (N2) [Å²]	Compound
199.2	OC[C@H]1O[C@@](CO)(O[C@H]2O[C@H](CO)[C@@H](O)[C@H](O)[C@H]2O)[C@@H](O[C@H]2O[C@H](CO)[C@@H](O)[C@H](O)[C@H]2O)[C@@H]1O [MELEZITOSE]
159.3	CC(=O)N[C@@H](Cc1c[nH]c2ccccc12)C(N)=O [ACETYLTRYPTOPHANAMIDE]
175.7	OC[C@H]1O[C@@H](O[C@H]2[C@H](O)[C@@H](O)[C@@H](O)O[C@@H]2CO)[C@H](O)[C@@H](O)[C@@H]1O [CELLOBIOSE (D[+])]

Reference: the C3SDB collision cross section collection
